The text below walks through data of publication PMC5794925, “Expression and specificity of a chitin deacetylase from the nematophagous fungus Pochonia chlamydosporia potentially involved in pathogenicity” (Scientific Reports, 2018).

The experiment deals with T1, PcCDA catalytic domain (Pochonia chlamydosporia, UniProt A0A179FW77).
T1 construct: gene VFPPC_13269
T1 sequence (A0A179FW77 94-309): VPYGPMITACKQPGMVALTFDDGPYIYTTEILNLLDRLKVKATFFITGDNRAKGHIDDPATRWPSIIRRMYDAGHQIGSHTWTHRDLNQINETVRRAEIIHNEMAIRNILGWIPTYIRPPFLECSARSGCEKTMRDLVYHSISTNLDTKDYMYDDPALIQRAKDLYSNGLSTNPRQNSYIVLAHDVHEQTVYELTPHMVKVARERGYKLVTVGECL
Nature of the experiment: HPLC-MS of deacetylated products. It is filed as biochemical. Particulars: 0.2 mM substrate, 3.2 nM enzyme, 50 mM K2HPO4, 300 mM NaCl, pH 8.0, 37 °C; refolded with Zn2+.

For `CC(=O)N[C@H]1[C@H](O[C@H]2[C@H](O)[C@@H](NC(C)=O)C(O)O[C@@H]2CO)O[C@H](CO)[C@@H](O[C@@H]2O[C@H](CO)[C@@H](O[C@@H]3O[C@H](CO)[C@@H](O)[C@H](O)[C@H]3NC(C)=O)[C@H](O)[C@H]2NC(C)=O)[C@@H]1O` (stereo partly shown) [A4, GlcNAc4], the “HPLC-MS of deacetylated products” value was “With the A4 substrate, the enzyme was also active but slower than with the A5”.
